How the values were obtained:
Experiment in all cases: relative viability (nuclei count vs DMSO), 5 days (fraction); higher = more cells survive
NCI-H1703 = system: NCI-H1703
In short: (§1)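 Relative viability divides the nuclei count in treated wells by that in vehicle wells. Lung cancer cell lines were seeded in 1536-well plates, dosed by pin tool the next day, and fixed and stained after 5 days in one step with final 0.05% Triton X-100, 1% formaldehyde and 1 ug/ml Hoechst. Dosing was a single drug or a fixed anchor-drug dose plus five library-drug doses (not always all listed) in √10 steps, and values are medians of duplicate plates imaged at 4×.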

NCI-H1648 = system: NCI-H1648
In short: as §1

NCI-H1355 = system: NCI-H1355
In short: as §1

NCI-H1299 = system: NCI-H1299
In short: as §1

A549 = system: A549
In short: as §1

EBC-1 = system: EBC-1
In short: as §1

Calu-6 = system: Calu-6
In short: as §1

IA-LM = system: IA-LM
In short: as §1

Row | SMILES | relative viability (NCI-H1703; first compound 0.04 µM) | relative viability (NCI-H1703; first compound 0.1265 µM) | relative viability (NCI-H1703; first compound 1.265 µM) | relative viability (NCI-H1703; first compound 4 µM) | relative viability (NCI-H1355; first compound 0.04 µM) | relative viability (NCI-H1355; first compound 0.1265 µM) | relative viability (NCI-H1355; first compound 0.4 µM) | relative viability (NCI-H1355; first compound 1.265 µM) | relative viability (NCI-H1355; first compound 4 µM) | relative viability (NCI-H1703; first compound 0.4 µM) | relative viability (NCI-H1299; first compound 0.04 µM) | relative viability (NCI-H1299; first compound 0.1265 µM) | relative viability (NCI-H1299; first compound 0.4 µM) | relative viability (NCI-H1299; first compound 1.265 µM) | relative viability (NCI-H1299; first compound 4 µM) | relative viability (A549; first compound 0.04 µM) | relative viability (A549; first compound 0.1265 µM) | relative viability (A549; first compound 0.4 µM) | relative viability (A549; first compound 1.265 µM) | relative viability (A549; first compound 4 µM) | other results
1 | COc1cc(N2CCC(C(N)=O)CC2)ccc1Nc1nc(N)c(Cl)c(Nc2ccccc2S(=O)(=O)C(C)C)n1 [HG-5-88-01] + NC(=O)Nc1cc(-c2cccc(F)c2)sc1C(=O)N[C@H]1CCCNC1 [AZD7762] (partner 0.2 µM) | 0.106 | 0.133 | 0.122 | 0.124 | 0.714 | 0.731 | 0.762 | 0.69 | 0.474 |  |  |  |  |  |  |  |  |  |  |  | relative viability (NCI-H1648; first compound 0.04 µM): 0.63; relative viability (NCI-H1648; first compound 0.1265 µM): 0.624; relative viability (NCI-H1648; first compound 0.4 µM): 0.695; relative viability (NCI-H1648; first compound 1.265 µM): 0.683; relative viability (NCI-H1648; first compound 4 µM): 0.654
2 | C[C@@H]1CN(CC(=O)Nc2ccc3c(c2)Cc2cccc(-c4cc(=O)cc(N5CCOCC5)o4)c2S3)C[C@H](C)O1 + NC(=O)Nc1cc(-c2cccc(F)c2)sc1C(=O)N[C@H]1CCCNC1 [AZD7762] (partner 0.2 µM) | 0.137 | 0.11 |  | 0.117 | 0.799 | 0.682 | 0.671 |  | 0.62 | 0.141 |  |  |  |  |  |  |  |  |  |  | relative viability (NCI-H1648; first compound 0.04 µM): 0.519; relative viability (NCI-H1648; first compound 0.1265 µM): 0.574; relative viability (NCI-H1648; first compound 0.4 µM): 0.961; relative viability (NCI-H1648; first compound 4 µM): 0.604
3 | COc1cc(N2CCC(C(N)=O)CC2)ccc1Nc1nc(N)c(Cl)c(Nc2ccccc2S(=O)(=O)C(C)C)n1 [HG-5-88-01] + C[C@@H](Oc1cc(-c2cnn(C3CCNCC3)c2)cnc1N)c1c(Cl)ccc(F)c1Cl [Crizotinib] (partner 1 µM) | 0.581 | 0.523 | 0.327 | 0.175 | 1.19 | 1.05 | 1.02 | 0.983 | 0.972 | 0.54 | 0.992 | 0.981 | 0.982 | 0.976 | 0.881 | 0.735 | 0.763 | 0.699 | 0.387 | 0.0941 | relative viability (EBC-1; first compound 0.04 µM): 0.183; relative viability (EBC-1; first compound 0.1265 µM): 0.187; relative viability (EBC-1; first compound 0.4 µM): 0.207; relative viability (EBC-1; first compound 1.265 µM): 0.171; relative viability (EBC-1; first compound 4 µM): 0.142; relative viability (Calu-6; first compound 0.04 µM): 0.767; relative viability (Calu-6; first compound 0.1265 µM): 0.81; relative viability (Calu-6; first compound 0.4 µM): 0.833; relative viability (Calu-6; first compound 1.265 µM): 0.616; relative viability (Calu-6; first compound 4 µM): 0.304; relative viability (IA-LM; first compound 0.04 µM): 0.907; relative viability (IA-LM; first compound 0.1265 µM): 0.953; relative viability (IA-LM; first compound 0.4 µM): 0.773; relative viability (IA-LM; first compound 1.265 µM): 0.632; relative viability (IA-LM; first compound 4 µM): 0.758
4 | Clc1ccc(Nc2nnc(Cc3ccncc3)c3ccccc23)cc1 [Vatalanib] + C[C@]1(O)C[C@@H](c2nc(-c3ccc4ccc(-c5ccccc5)nc4c3)c3c(N)nccn32)C1 [Linsitinib] (partner 1 µM) | 0.804 |  | 0.386 | 0.211 | 0.87 | 0.818 | 0.915 | 0.772 | 0.763 | 1.21 | 1.05 | 0.955 | 0.948 | 0.961 | 0.967 | 0.51 | 0.573 | 0.703 | 0.656 | 0.592 | relative viability (EBC-1; first compound 0.04 µM): 1.14; relative viability (EBC-1; first compound 0.1265 µM): 0.777; relative viability (EBC-1; first compound 0.4 µM): 0.994; relative viability (EBC-1; first compound 1.265 µM): 0.812; relative viability (EBC-1; first compound 4 µM): 0.808; relative viability (Calu-6; first compound 0.1265 µM): 0.926; relative viability (Calu-6; first compound 0.4 µM): 1.02; relative viability (Calu-6; first compound 1.265 µM): 0.912; relative viability (Calu-6; first compound 4 µM): 1.01; relative viability (IA-LM; first compound 0.04 µM): 0.763; relative viability (IA-LM; first compound 0.1265 µM): 0.59; relative viability (IA-LM; first compound 0.4 µM): 0.69; relative viability (IA-LM; first compound 1.265 µM): 0.55; relative viability (IA-LM; first compound 4 µM): 0.582
5 | COc1cc(N2CCC(C(N)=O)CC2)ccc1Nc1nc(N)c(Cl)c(Nc2ccccc2S(=O)(=O)C(C)C)n1 [HG-5-88-01] + CS(=O)(=O)N1CCN(Cc2cc3nc(-c4cccc5[nH]ncc45)nc(N4CCOCC4)c3s2)CC1 [Pictilisib] (partner 1 µM) | 0.217 | 0.223 | 0.222 | 0.226 | 0.253 | 0.462 | 0.412 | 0.414 | 0.299 | 0.228 | 0.745 | 0.724 | 0.725 | 0.643 | 0.682 | 0.482 | 0.495 | 0.389 | 0.323 | 0.237 | relative viability (EBC-1; first compound 0.04 µM): 0.394; relative viability (EBC-1; first compound 0.1265 µM): 0.362; relative viability (EBC-1; first compound 0.4 µM): 0.339; relative viability (EBC-1; first compound 1.265 µM): 0.324; relative viability (EBC-1; first compound 4 µM): 0.217; relative viability (Calu-6; first compound 0.04 µM): 0.942; relative viability (Calu-6; first compound 0.1265 µM): 0.869; relative viability (Calu-6; first compound 0.4 µM): 0.848; relative viability (Calu-6; first compound 1.265 µM): 0.824; relative viability (Calu-6; first compound 4 µM): 0.698; relative viability (IA-LM; first compound 0.04 µM): 0.398; relative viability (IA-LM; first compound 0.1265 µM): 0.252; relative viability (IA-LM; first compound 0.4 µM): 0.244; relative viability (IA-LM; first compound 1.265 µM): 0.172; relative viability (IA-LM; first compound 4 µM): 0.145
6 | COc1cc(N2CCC(C(N)=O)CC2)ccc1Nc1nc(N)c(Cl)c(Nc2ccccc2S(=O)(=O)C(C)C)n1 [HG-5-88-01] + CC1(C)CCC(c2ccc(Cl)cc2)=C(CN2CCN(c3ccc(C(=O)NS(=O)(=O)c4ccc(N[C@H](CCN5CCOCC5)CSc5ccccc5)c(S(=O)(=O)C(F)(F)F)c4)cc3)CC2)C1 [Navitoclax] (partner 0.5 µM) | 0.719 | 1.22 | 0.926 | 0.762 | 1.01 | 1.08 | 0.959 | 0.789 | 0.841 | 1.2 | 1.03 | 1.08 | 1.03 | 1.06 | 1.02 | 1.23 | 1.21 | 1.07 | 0.87 | 0.687 | relative viability (EBC-1; first compound 0.04 µM): 0.407; relative viability (EBC-1; first compound 0.1265 µM): 0.457; relative viability (EBC-1; first compound 0.4 µM): 0.427; relative viability (EBC-1; first compound 1.265 µM): 0.241; relative viability (EBC-1; first compound 4 µM): 0.217; relative viability (Calu-6; first compound 0.04 µM): 0.958; relative viability (Calu-6; first compound 0.1265 µM): 0.86; relative viability (Calu-6; first compound 0.4 µM): 0.717; relative viability (Calu-6; first compound 1.265 µM): 0.693; relative viability (Calu-6; first compound 4 µM): 0.46; relative viability (IA-LM; first compound 0.04 µM): 0.835; relative viability (IA-LM; first compound 0.1265 µM): 0.794; relative viability (IA-LM; first compound 0.4 µM): 0.731; relative viability (IA-LM; first compound 1.265 µM): 0.825; relative viability (IA-LM; first compound 4 µM): 0.802
7 | CC(C)Oc1cc(Nc2nc(N[C@@H](C)c3ccc(F)cn3)ncc2Cl)n[nH]1 [AZ23] + Cc1nc(NC(=O)N2CCC[C@H]2C(N)=O)sc1-c1ccnc(C(C)(C)C(F)(F)F)c1 [Alpelisib] (partner 2 µM) |  |  |  |  |  |  |  |  |  |  |  |  |  |  |  |  |  |  |  |  | relative viability (NCI-H1703; first compound 0.03162 µM): 0.434; relative viability (NCI-H1703; first compound 0.3162 µM): 0.308; relative viability (NCI-H1299; first compound 0.01 µM): 1.16; relative viability (NCI-H1299; first compound 0.03162 µM): 1.09; relative viability (NCI-H1299; first compound 0.3162 µM): 1.23; relative viability (A549; first compound 0.01 µM): 0.738; relative viability (A549; first compound 0.03162 µM): 0.758; relative viability (A549; first compound 0.3162 µM): 0.716; relative viability (EBC-1; first compound 0.01 µM): 0.826; relative viability (EBC-1; first compound 0.03162 µM): 0.869; relative viability (EBC-1; first compound 0.3162 µM): 0.859; relative viability (Calu-6; first compound 0.03162 µM): 1.12; relative viability (Calu-6; first compound 0.3162 µM): 1.11; relative viability (NCI-H1355; first compound 0.01 µM): 0.876; relative viability (NCI-H1355; first compound 0.03162 µM): 0.873; relative viability (NCI-H1355; first compound 0.3162 µM): 0.782; relative viability (IA-LM; first compound 0.01 µM): 0.729; relative viability (IA-LM; first compound 0.03162 µM): 0.98; relative viability (IA-LM; first compound 0.3162 µM): 0.943

Source: the supplement of paper PMC10307832
